Assay results published in patent publication US20210309686A1, “QUATERNARY AMMONIUM SALTS OF NICOTINIC ACID AND NICOTINAMIDE MONONUCLOETIDES AND RIBOSIDES AS ANTI-AGING AGENTS” (Jumpstart Fertility Pty Ltd, priority 2018, published 2021).

system: COV434 cells; assay: NAD Cell Assays (NAD cycling method); format: cell-based; conditions: COV434 cells treated at 200 uM for 4 hr; NAD normalized to protein; salt compared mole per mole with its parent counterpart
Method: NAD levels were assayed based on the NAD cycling method of Zhu and Rand, PLoS One (2012), herein incorporated by reference. COV434 cells were maintained in 6 well plates and treated with the indicated compounds at a concentration of 200 uM for 4 hr. Media was removed, plates were washed in cold PBS and cells were scraped down in NAD extraction buffer containing 10 mM nicotinamide, 50 mM Tris HCl, 0.1% Triton X-100. Cells were homogenized by sonication for 5 seconds, and samples were centrifuged at 7,000 g for 5 min at 4 degrees. Aliquots were taken for later protein assay, and samples were then passed through 10 kDa amicon filters at 14,000 g, 30 min at 4 degrees to remove proteins from the sample. Each sample was measured in technical triplicate, with 25 μL sample added to 100 μL ADH cycling mix (0.2 mg/ml alcohol dehydrogenase enzyme, 2% ethanol, 100 mM Tris pH 8.5). Samples were allowed to cycle for 10 min at room temperature, followed by 50 μL addition of an MTT/PMS solution (0.1 mM phenazine methosulfate, 0.8 mM 3-(4,5-Dimethylthiazol-2-yl)-2,5-diphenyltetrazolium bromide), 100 mM Tris-HCl pH 8.5). Plates were then incubated for 15 min and absorbance was measured at 570 nm. NAD concentrations were extrapolated from a standard curve, and normalized to protein concentrations determined by BCA protein assay.
The fold increase is obtained through a direct comparison on a mole per mole between the compared salt and its parent counterpart.

Point of comparison: `NC(=O)c1ccc[n+]([C@@H]2O[C@H](COP(=O)([O-])O)[C@@H](O)[C@H]2O)c1` [I-005, 1-Carboxy-N,N,N-trimethylmethanaminium ((2R,3S,4R,5R)-5-(3-carbamoylpyridin-1-ium-1-yl)-3,4-dihydroxytetrahydrofuran-2-yl)methyl phosphate], “Fold Increase of NAD Adjusted by Molecular Weight” value 1.35. Against it:
- O=C([O-])c1ccc[n+]([C@@H]2O[C@H](COP(=O)(O)O)[C@@H](O)[C@H]2O)c1 [I-002, (R)-3-Carboxy-2-hydroxy-N,N,N-trimethylpropan-1-aminium 1-((2R,3R,4S,5R)-5-(((hydrogenphosphonato)oxy)methyl)-3,4-dihydroxytetrahydrofuran-2-yl)pyridin-1-ium-3-carboxylate] — higher, 1.47
- O=C([O-])c1ccc[n+]([C@@H]2O[C@H](COP(=O)(O)O)[C@@H](O)[C@H]2O)c1 [I-003, 1-Carboxy-N,N,N-trimethylmethanaminium 1-((2R,3R,4S,5R)-5-(((hydrogenphosphonato)oxy)methyl)-3,4-dihydroxytetrahydrofuran-2-yl)pyridin-1-ium-3-carboxylate] — higher, 1.51
- O=C([O-])c1ccc[n+]([C@@H]2O[C@H](COP(=O)(O)O)[C@@H](O)[C@H]2O)c1 [I-006, (R)-3-Carboxy-2-hydroxy-N,N,N-trimethylpropan-1-aminium 1-((2R,3R,4S,5R)-3,4-dihydroxy-5-((phosphonatooxy)methyl)tetrahydrofuran-2-yl)pyridin-1-ium-3-carboxylate] — higher, 1.64
- O=C([O-])c1ccc[n+]([C@@H]2O[C@H](COP(=O)(O)O)[C@@H](O)[C@H]2O)c1 [I-007, 1-Carboxy-N,N,N-trimethylmethanaminium 1-((2R,3R,4S,5R)-3,4-dihydroxy-5-((phosphonatooxy)methyl)tetrahydrofuran-2-yl)pyridin-1-ium-3-carboxylate] — higher, 1.92
